Measured values as given in patent US20240307424A1, “COMPOSITION CAPABLE OF PROMOTING HAIR GROWTH, DRUG CAPABLE OF PROMOTING HAIR GROWTH, AND APPLICATION THEREOF” (GUANGXI XINHAI PHARMACEUTICAL TECHNOLOGY CO., LTD., priority 2022, published 2024).

Columns and labels:
[1] = test system: hair removal area on the back of mice; test: Hair growth on the back of mice after hair removal (photos, hair growth speed score); assay type: in vivo, KM mice; conditions: twice a day, 2 weeks; for hair growth speed (score 0-3) of the hair removal area: high dose 2 mg/mL, compared with the model group
Text: The experimental animals are purchased from National Institutes for Food and Drug Control with a production license No. of SCXK2017 (Jing)-0005, KM mice, male, 18-20 g. SPF grade.
Except for a normal control group, the back of all the mice in the other groups are subjected to hair removal.
The experimental animals are purchased from National Institutes for Food and Drug Control with the production license No. of SCXK2017 (Jing)-0005, KM mice, male, 18-20 g, spf grade.
Except for the normal control group, the back of all the mice in the other groups are subjected to hair removal.

[2] = Weight of mice after administration for 2 weeks
Procedure: Animal grouping: a blank group, a model group, a Vaseline group, a pulchinenoside B4-low dose group, a pulchinenoside B4-medium dose group, a pulchinenoside B4-high dose group, a positive drug of minoxidil liniment group, 10 mice per group, pulchinenoside B4 and minoxidil liniment in each group are dissolved with Vaseline. The mice in the Vaseline group are administered Vaseline, the low dose, and medium dose and high dose of pulchinenoside B4 are 0.5, 1, and 2 mg/mL, respectively. The mice are administered twice a day, after 2 weeks of continuous administration, the skin tissue of a hair removal area on the back of the mice in each group is taken, is fixed and is subjected to HE staining, and the number of hair follicles is counted under a microscope.
Animal grouping: a blank group, a model group, a Vaseline group, a pulchinenoside B5-low dose group, a pulchinenoside B5-medium dose group, a pulchinenoside B5-high dose group, a positive drug of minoxidil liniment group, 10 mice per group, pulchinenoside B5 and minoxidil liniment in each group are dissolved with Vaseline. […] The mice are administered twice a day, after 2 weeks of continuous administration, the skin tissue of a hair removal area on the back of the mice in each group is obtained, is fixed and is subjected to HE staining, and the number of hair follicles is counted under a microscope.

[3] = test system: hair follicles in the skin tissue of the hair removal area on the back of mice; test: Number of hair follicles in skin tissue of the hair removal area (HE staining); assay type: in vivo, KM mice; conditions: twice a day, 2 weeks, compared with the model group
Text: After the mice are sacrificed, the skin tissue of the back is fixed, is embedded with paraffin to obtain a paraffin-embedded section, is subjected to HE staining, and is counted the number of hair follicles to evaluate the effect of hair growth promotion.

[4] = medium dose 1 mg/mL in Vaseline

effect on the weight of mice [2]	SMILES	hair growth in the hair removal area on the back of mice (photos) ([1]; high dose 2 mg/mL in Vaseline)	hair growth speed (score 0-3) of the hair removal area [1]	hair growth in the hair removal area on the back of mice (photos) ([1]; low dose 0.5 mg/mL in Vaseline)	hair growth in the hair removal area on the back of mice (photos) [1, 4]	number of hair follicles in the skin tissue of the hair removal area ([3]; high dose 2 mg/mL)	number of hair follicles in the skin tissue of the hair removal area ([3]; low dose 0.5 mg/mL)	number of hair follicles in the skin tissue of the hair removal area ([3]; medium dose 1 mg/mL)
no significant effect	C[C@@H]1O[C@@H](OC2[C@@H](CO)OC(OCC3OC(OC(=O)C45CCC(C)(C)C[C@@H]4[C@H]4CC[C@@H]6[C@@]7(C)CC[C@H](O[C@@H]8OC[C@H](O)[C@H](O)[C@H]8O[C@@H]8O[C@@H](C)[C@H](O)[C@@H](O)[C@H]8O)C(C)(CO)[C@@H]7CC[C@@]6(C)[C@]4(C)CC5)[C@H](O)[C@@H](O)[C@@H]3O)[C@H](O)[C@H]2O)[C@H](O)[C@H](O)[C@H]1O (stereo partly drawn) [pulchinenoside B5]	can promote hair growth	significantly increased	can promote hair growth	can promote hair growth	significantly increase	significantly increase	significantly increase
–	C=C(C)[C@@H]1CCC2(C(=O)OC3OC(COC4O[C@H](CO)C(O[C@@H]5O[C@@H](C)[C@H](O)[C@@H](O)[C@H]5O)[C@H](O)[C@H]4O)[C@@H](O)[C@H](O)[C@H]3O)CC[C@]3(C)[C@H](CC[C@@H]4[C@@]5(C)CC[C@H](O[C@@H]6OC[C@H](O)[C@H](O)[C@H]6O[C@@H]6O[C@@H](C)[C@H](O)[C@@H](O)[C@H]6O)[C@@](C)(CO)C5CC[C@]43C)[C@@H]12 (stereo partly drawn) [pulchinenoside B4]	can promote hair growth	significantly increased	can promote hair growth	can promote hair growth	significantly increase	significantly increase	significantly increase
